Here are results for 6 compounds from US20090012148A1, “REDUCING CELLULAR CHOLESTEROL LEVELS AND/OR TREATING OR PREVENTING PHOSPHOLIPIDOSIS” (priority 2005, published 2009).

The test system of series [1] is CT60 cells. Nature of the series: Filipin binding assay, LSO compartment ratio (dose dependence, time course). Type of series: cell-based, Chinese hamster. The source says: Although the intensity assay was potentially useful, it seemed that additional information in the images could provide better discrimination of wild type vs. NPC cells. For this purpose, we took advantage of the spatial distribution of the filipin labeling of the LSOs, which cluster near the nucleus (FIG. 1B). We applied the second, higher threshold for this bright cluster. We then measured the total fluorescence intensity in the selected LSO objects (high threshold, FIG. 2C) divided by the total number of pixels in cells (low threshold, FIG. 2D).
Image analysis: Images of filipin-stained cells were analyzed using Metamorph Discovery-1 image analysis software. Two different image analysis assays were developed: (1) Average filipin intensity assay and (2) LSO compartment ratio assay. First, to correct for shading an image was created by averaging all of the images from a plate and smoothing the averaged image using a low pass filter. Then each pixel in an image was multiplied by the average intensity of the shading image, and the resulting pixel intensities were divided by the shading image on a pixel-by-pixel basis. Background was subtracted from each shading-corrected image by determining the 5th percentile intensity value of the image and subtracting this value from each pixel in the image. At the plating density used, all fields had at least 5% of the imaged areas that was cell-free. Next, two different thresholds were applied to the filipin images. For the first, a low threshold was set to include all areas occupied by cells. […] A second, higher threshold was set for brightly stained regions in CT60 and/or CT43 cells by selecting bright areas of filipin staining, with the intention of mainly identifying the LSOs in the perinuclear region of the cells. For the Average filipin intensity assay, using the low threshold alone, we measured total filipin intensity above the low threshold divided by the number of pixels above the lower threshold for each field. This gave an average filipin intensity per cell area. For the LSO compartment ratio we measured the total filipin intensity selectively in the region above the higher threshold divided by the number of pixels in the lower threshold. This gave a measure of the total intensity of LSO filipin per cell area.
Dose Dependence: Using the same methods as for the screening, compounds were tested at 10 μM, 3.33 μM, 1.11 μM, 370 nM and 123 nM in four wells each. Batches of selected compounds were purchased from Chemical Diversity, and 10 mM stocks in DMSO were made. A secondary stock plate of 2× concentration (20 μM, 6.66 μM, 2.22 μM, 740 nM and 246 nM) of compounds was prepared in screening medium S. To obtain the final concentrations, […] of this secondary stock was added to the cells in each well containing 30 μl of growth medium A supplemented with 10% FBS. The final DMSO concentration (0.2% v/v) was the same in all wells. Cells were plated at 650 cells per well in 30 μl of growth medium A supplemented with 10% FBS in Costar 384 well plates. After 20 h of incubation in the presence of the compounds, cells were washed with PBS, fixed with PFA and stained with filipin as described for the screening assay. Dose dependence determination of the initial 14 hit compounds from the primary library was done at least 5 times in CT60 cells and 3 times in CT43 cells in separate experiments. Dose dependence determination of the 7 hit compounds from the secondary library was carried out at least 3 times in CT60 cells and 2 times in CT43 cells in separate experiments.
The effects of the compounds were determined at 1.11, 3.33 and 10 μM concentrations after 4, 20 and 48 h using methods similar to the dose dependence. The CT60 cells were seeded in three 384 well plates at 600 cells/well in growth medium on day 1. To maintain the same density of cells at the final time point, compounds were added chronologically. […]

The subject of series [2] is CT60 cells. Kind of series: Toxicity assay by cell count (Hoechst 33258). In kind it is cell-based, Chinese hamster. As for the experimental part: To measure toxicity, we treated CT60 and CT43 cells with compounds at 5, 10 and 20 μM for 24 h. The cell number per well was compared to control cells treated with DMSO (FIG. 7). […] Compound 1-a-14 did cause a 50% reduction in cell number at 10 μM for CT60 and an 80% reduction for CT43 cells. Compounds 1-a-4, 5, 6, 8 and 13 were partially toxic as indicated by 20-30% reduction in cell number after 24 h at 10 μM. Procedure Using Cell Count Assay: Compounds were added to CT60 and CT43 cells plated in 384 well plates at 0 (DMSO solvent control), 5, 10 and 20 μM concentrations in quadruplicate using methods similar to the dose dependence assay, except that the cells were stained with Hoechst 33258 nuclear stain. The final DMSO concentration in each well was 0.2%. For the control cells an equivalent amount of DMSO was added to the cells. The cells were incubated for 24, 48 and 72 h. After each time period, cells were washed and then fixed with 1.5% PFA. After washing the cells three times with PBS, the nuclei of the cells were stained using 5 μg/ml Hoechst 33258 (25 mg/ml stock solution in DMSO) in PBS for 45 m at room temperature. Finally, cells were washed three times with PBS, and images were obtained using a Nikon 4× Plan Apo 0.2NA objective. For Hoechst imaging we used the same filter set as for filipin. We collected one 520×696 pixel image per well at 12 intensity bits per pixel. Each pixel is 3.125 by 3.125 μm in […] the object. Cells were counted by defining the standard area of single nuclei (˜200 μm^2) interactively for each plate using the Integrated Morphometry Analysis function of MetaMorph. The number of standard areas per object above a threshold was determined, and the total number of standard areas per image was used as the cell count. The percent reduction in the number of cells compared to DMSO control was calculated for each concentration and time.

`C=CCN1C(=O)C(=Cc2cc(C)n(-c3ccccc3)c2C)C(C(=O)OC)=C1C` [Compound 2-a-15]: the “Lowest Effective Dose (LSO Assay) (−3 SD @ 20 h)” value in the series on CT60 cells [1] is 3.33 µM. For the same compound, the “Cell Count After 24 h @ 10 μM dose Fraction of Control” value in the series on CT60 cells [2] (10 μM) is reported as 0.94 Fraction of Control.
As to `CCOc1cccc2cc(-c3csc(Nc4cccc(C(F)(F)F)c4)n3)c(=O)oc12` [Compound 1-a-14], in the series on CT60 cells [1] (123 nM to 10 μM), the “shape of dose-response curve” value is “unusual dose-response curve”. Further, the “reduction in cell number” value with CT60 cells [2] (10 μM, 24 h) was found to be 50%.
Regarding `CCN(CC)c1ccc(C=C2SC(=S)N(c3ccc(OC)cc3)C2=O)cc1` [Compound 2-a-3], the “decrease in the LSO compartment ratio after 4 hr treatment” value in the series with CT60 cells [1] (4 hr, 1.1, 3.3 and 10 μM tested) was “more than 3 SD”. Further, in the series on CT60 cells [1], the “Lowest Effective Dose (LSO Assay) (−3 SD @ 20 h)” value was 3.33 µM. Moreover, the “Cell Count After 24 h @ 10 μM dose Fraction of Control” value in the series with CT60 cells [2] (10 μM) is recorded as 1.00 Fraction of Control.
Take `FC(F)(F)COc1nc(NN=Cc2cccc(I)c2)nc(N(c2ccccc2)c2ccccc2)n1` [Compound 2-a-12]: in the series on CT60 cells [1], the “effect below solvent control at 123 nM” value turned out to be 2 SD and the “Lowest Effective Dose (LSO Assay) (−3 SD @ 20 h)” value was determined as 370 µM. Besides, the “Cell Count After 24 h @ 10 μM dose Fraction of Control” value in the series on CT60 cells [2] (10 μM) is on record as 0.67 Fraction of Control. Further, the “reduction in the number of cells” value in the series on CT60 cells [2] (20 μM, 24 h) was found to be 75%.
Take `O=[N+]([O-])c1cccc(C=NNc2nc(Nc3cccc4ccccc34)nc(N(c3ccccc3)c3ccccc3)n2)c1` [Compound 2-a-13]: the “Lowest Effective Dose (LSO Assay) (−3 SD @ 20 h)” value with CT60 cells [1] is 370 µM. Also, the “Cell Count After 24 h @ 10 μM dose Fraction of Control” value in the series with CT60 cells [2] (10 μM) is on record as 1.00 Fraction of Control.
Turning to `COc1ccccc1Nc1nc(Nc2ccccc2OC)nc(Nc2ccccc2OC)n1` [Compound 2-a-9], in the series with CT60 cells [1], the “effect below solvent control at 123 nM” value worked out at 2 SD and the “Lowest Effective Dose (LSO Assay) (−3 SD @ 20 h)” value stood at 370 µM. For the same compound, in the series on CT60 cells [2] (10 μM), the “Cell Count After 24 h @ 10 μM dose Fraction of Control” value is 0.90 Fraction of Control.
